From patent publication US8574551B2, “Compositions useful for reducing nephrotoxicity and methods of use thereof” (Verrow Pharmaceuticals, Inc., priority 2005, dated 2013) come the findings set out here.

What all share (type): in vivo, C57BL/6 mice
Data set [1] relates to kidney. Kind of data set: Acyclovir induced nephrotoxicity in mildly renal compromised mice. The note with it: acyclovir 10 or 30 mg/kg IV, 10 consecutive days, alone. Here is the method:
These doses however, produce nephrotoxicity in humans. Therefore, the nephroprotective effects of sulfobutylether β cyclodextrin (SBEβCD) in mildly renal compromised mice was evaluated. […] In order to produce mildly renal compromised mice, animals were injected with L-NAME (L arginine methyl ester) 10 mg/kg and Indomethacin 10 mg/kg, ip., 15-20 min before the first injection of acyclovir. Female C57BL/6 mice were administered bolus intravenous injections for ten consecutive days with a dose of 10 mg/kg acyclovir (N=3) or acyclovir 10 mg/kg+SBEβCD 173 mg/kg (N=3), or 30 mg/kg acyclovir (N=3) or acyclovir 30 mg/kg+SBEβCD 520 mg/kg (N=3) (Table 6). In both cases the acyclovir to SBEβCD molar ratio was 1:2. Animals were sacrificed after 48 hrs after the last injection. Renal pathology was assessed by evaluating H&E sections of the kidney under a light microscope. Paraffin sections of […] were cut and stained with H&E and periodic acid Schiff (PAS). They were examined by light microscopy and scored in a blinded fashion. Five arbitratary fields at 40× magnification in each sections was assessed according to the below mentioned parameters and scored according to the criteria mentioned.

For data set [2], the system named is kidney. The data set can be described thus: Iohexyl induced nephrotoxicity in mildly renal compromised mice. The note with it: iohexyl 1.5 g/kg iv once, alone, 24 hrs. Here is the method: Iohexyl is nephrotoxic in humans and can produce acute renal failure in renally compromised patients. Therefore, the nephroprotective effects of sulfobutyl ethyl β cyclodextrin (SBE-βCD) in a contrast agent induced nephropathy model involving mildly renal compromised mice was evaluated. […] In order to produce mildly renal compromised mice, female C57BL/6 mice were injected with nitric oxide synthase inhibitor L-NAME (L arginine methyl ester) 10 mg/kg and prostaglandin synthesis inhibitor Indomethacin 10 mg/kg, ip., 15-20 min before injecting of iohexyl. The mice were administered a single bolus intravenous injections of iohexyl 1.5 g/kg (N=4) or iohexyl 1.5 g/kg+SBE-βCD 1.3 g/kg (N=4), or iohexyl 1.5 g/kg+SBE-βCD […] administered 30 minutes before, concurrently, and 30 min after iohexyl injection (N=4) (Table 7). In both cases, the iohexyl to SBE-βCD molar ratio was 1:0.1 during the concurrent dose. […] Renal pathology was assessed by evaluating H&E sections of the kidney under a light microscope.
Paraffin sections of […] were cut and stained with H&E and periodic acid Schiff (PAS). They were examined by light microscopy and scored in a blinded fashion. At 40× magnification, five arbitrary fields in each section was assessed for the below mentioned parameters and scored blindly according to the criteria mentioned. A total of 4 sections were analyzed per kidney.

Data set [3] concerns kidney. The data set can be described thus: Doxorubicin induced nephrotoxicity model in mice. The note with it: doxorubicin 10 mg/kg single iv dose; 72 hours. Here is the method:
Female C57BL/6 mice were injected intravenously with a single dose of (10 mg/kg) doxorubicin. The mice were sacrificed after 72 hours. The development of glumerular and tubulointerstitial injury after doxorubicin and doxorubicin+Captisol was evaluated by means of renal histology. Paraffin sections of […] were cut and stained with H&E and periodic acid Schiff (PAS). They were examined by light microscopy and scored in a blinded fashion. Thirty glomeruli and neighboring tubules were scored at superficial cortes (near the surface of the capsule). One hundred glomeruli and neighboring tubules were scored at the level of deep renal cortex and around the outer strips of the outer medulla.

Data set [4] has as its system kidney. Kind of data set: Gentamicin induced nephrotoxicity in mice. Particulars: 10 consecutive days. Here is the method:
These doses however, produce nephrotoxicity in humans. Therefore, nephroprotective effects of SBE-βCD in mildly renal compromised mice was evaluated. […] In order to produce mildly renal compromised mice, animals were injected with L-NAME (L arginine methyl ester) 10 mg/kg and Indomethacin 10 mg/kg, ip., 15-20 min before the first injection of gentamicin. Female C57BL/6 mice were administered bolus intravenous injections for ten consecutive days with a dose of 4.0 mg/kg gentamicin (N=4) or gentamicin 4.0 mg/kg+SBE-βCD 19.2 mg/kg (N=4), or gentamicin 4.0 mg/kg+SBE-βCD 38.4 mg/kg (N=4). Gentamicin to SBE-βCD molar ratios were 1:1 and 1:2 respectively. Animals were sacrificed after 48 hrs after the last injection. Renal pathology was assessed by evaluating H&E sections of the kidney under light microscope.
Paraffin sections of […] were cut and stained with H&E and periodic acid Schiff (PAS). They were examined by light microscopy and scored in a blinded fashion. Five arbitrary fields at 40× magnification in each sections was assessed for the below mentioned parameters and scored according to the criteria mentioned

On to `Nc1nc2c(ncn2COCCO)c(=O)[nH]1` [Acyclovir, acyclovir], for which, in the data set with kidney [1], the renal histology entry is recorded as “moderate to severe signs of tubulopathy”.
For `CC(=O)N(CC(O)CO)c1c(I)c(C(=O)NCC(O)CO)c(I)c(C(=O)NCC(O)CO)c1I` (centres unmarked) [Iohexyl, iohexyl], the renal histology entry with kidney [2] was “moderate to severe signs of tubulopathy”.
For `COc1cccc2c1C(=O)c1c(O)c3c(c(O)c1C2=O)C[C@@](O)(C(=O)CO)C[C@@H]3O[C@H]1C[C@H](N)[C@H](O)[C@H](C)O1` [doxorubicin], the renal histology entry with kidney [3] is “tubular casts, abundant dilated tubules and moderate loss of brush border in the some proximal tubules”.
gentamicin: the renal histology entry with kidney [4] (healthy mice, gentamicin 4 mg/kg intravenously) is “no noticeable changes in the tubular cells in the healthy kidney”; with kidney [4] (mild renal compromised mice (L-NAME + Indomethacin), gentamicin 4 mg/kg iv), “extensive tubular vacuolization and necrosis in the renal cortex”.
